The values below come from patent US20210405030A1, “MEANS AND METHODS FOR DETERMINING METABOLIC ADAPTATION” (EnFin GmbH, priority 2018, published 2021).

For experiment [1], the system named is Healthy blood donor mononuclear lymphocytes. The conditions noted are these: for Blood test result: reference interval 2.0±0.3.
Description: The cellular model used herein discriminates between an immuno activating environment and an immune suppressive environment. An immuno activating environment comprises supplementation of growth factors/serum and allows growth and survival of blood derived immune cells. An immuno suppressive environment comprises deprivation of growth factors/serum (starvation) and diminishes growth and survival of blood derived immune cells. […] In both conditions a switch to anaerobic glycolysis was induced pharmacologically and proliferation and survival of immune cells was compared to unmodified immune cells.
Healthy blood donor mononuclear lymphocytes were cultured under normoxia (21%) and anoxia (0%). Enzyme activities of PK low affinity (PK la), PK high affinity (PK ha) and Lactate dehydrogenase (LDH) were measured in the homogenates.
For a further experiment, the system named is PBMCs. Put plainly: Proliferation and survival of PBMCs in immuno activating (10% FCS) or immuno suppressive (starvation) environment (FIG. 1). Format: cell-based, human. To be noted: for proliferation and survival: GM-CSF 20 ng/ml, HMGB1 variants 200 nM. How it is done:
FIG. 1: Proliferation of PBMCs under the indicated conditions; P-M2 tide: induction of glycolysis by incubation with P-M2 tide; A) control (no activator compound); B) hGM-CSF added; C) to G) HMGB1 or variant thereof added.
To evaluate to what extent and by which agent anerg immune cells could be stimulated we used recombinant human GM-CSF (20 ng/ml, FIG. 1 B) or recombinant/synthetic variants of the immune system stimulating human HMGB1 cytokine (200 nM, FIG. 1 C-G).

Where two headings read alike, the source gives them in different places. Square brackets hold non-standard residues; d marks the D form. Ends that are not written are not given here. pY = N[C@@H](Cc1ccc(OP(=O)(O)O)cc1)C(=O)O

Regarding GGAVDDD[pY]AQFANGG [P-M2 tide], the Blood test result in experiment [1] (10% FCS (immuno activating environment) + P-M2 tide) came out at 0.30; in experiment [1] (starvation (immune suppressive environment) + P-M2 tide) it was 1.37. In addition, the “shift from OXPHOS to anaerobic glycolysis” value in experiment [1] (ex vivo human immune cells, blocking the PK tetramer) was “enables immune cells to shift from OXPHOS to anaerobic glycolysis”.

Regarding “GM-CSF: human granulocyte monocyte colony stimulating factor, recombinant”, the proliferation and survival entry was “fully rescued from cell death and showed increased proliferation (and survival)” with PBMCs (immuno-suppressed (starved) cells showing a switch to anaerobic glycolysis); “partly rescued” with PBMCs (immuno-suppressed (starved) cells with no switch to anaerobic glycolysis).

B1: Wildtype human recombinant HMGB1: high mobility group box 1 protein, immuno-stimulating cytokine and DAMP (SEQ ID NO:3) (protein, listed as Homo sapiens)
chain: MGKGDPKKPRGKMSSYAFFVQTCREEHKKKHPDASVNFSEFSKKCSERWKTMSAKEKGKFEDMAKADKARYEREMKTYIPPKGETKKKFKDPNAPKRPPSAFFLFCSEYRPKIKGEHPGLSIGDVAKKLGEMWNNTAADDKQPYEKKAAKLKEKYEKDIAAYRAKGKPDAAKKGVVKAEKSKKKKEEEEDEEDEEDEEEEEDEEDEDEEEDDDDE
Consider B1, for which the “proliferation and survival of immune cells” value with PBMCs (200 nM, condition not further specified) was “failed to increase proliferation and survival”.
